Laboratory results published in the supplement of paper PMC10307832.

What was measured:
Test in all cases: relative viability (nuclei count vs DMSO), 5 days (fraction); higher = more cells survive
VE-821 + Navitoclax = compound: CS(=O)(=O)c1ccc(-c2cnc(N)c(C(=O)Nc3ccccc3)n2)cc1 [VE-821] + CC1(C)CCC(c2ccc(Cl)cc2)=C(CN2CCN(c3ccc(C(=O)NS(=O)(=O)c4ccc(N[C@H](CCN5CCOCC5)CSc5ccccc5)c(S(=O)(=O)C(F)(F)F)c4)cc3)CC2)C1 [Navitoclax] (partner 0.5 µM)
In short: (§1)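 Relative viability equals treated-well nuclei counts divided by vehicle-well nuclei counts. Counts came from 4× images of lung cancer cell lines grown in 1536-well plates for 5 days after pin-tool dosing on the day after seeding. Dosing used one drug alone or a fixed anchor-drug dose plus five library-drug doses (not always all listed) in √10 steps, and values are medians of duplicate plates.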

Vismodegib + Vorinostat = compound: CS(=O)(=O)c1ccc(C(=O)Nc2ccc(Cl)c(-c3ccccn3)c2)c(Cl)c1 [Vismodegib] + O=C(CCCCCCC(=O)Nc1ccccc1)NO [Vorinostat] (partner 1 µM)
In short: as §1

VE-821 + Vorinostat = compound: CS(=O)(=O)c1ccc(-c2cnc(N)c(C(=O)Nc3ccccc3)n2)cc1 [VE-821] + O=C(CCCCCCC(=O)Nc1ccccc1)NO [Vorinostat] (partner 1 µM)
In short: as §1

Cell Line: HARA
- relative viability (VE-821 + Navitoclax; first compound 0.08 µM): 1.23
- relative viability (VE-821 + Navitoclax; first compound 0.253 µM): 1.13
- relative viability (VE-821 + Navitoclax; first compound 0.8 µM): 1.09
- relative viability (VE-821 + Navitoclax; first compound 2.53 µM): 1.15
- relative viability (VE-821 + Navitoclax; first compound 8 µM): 0.99
- relative viability (Vismodegib + Vorinostat; first compound 0.08 µM): 0.501
- relative viability (Vismodegib + Vorinostat; first compound 0.253 µM): 0.546
- relative viability (Vismodegib + Vorinostat; first compound 0.8 µM): 0.521
- relative viability (Vismodegib + Vorinostat; first compound 2.53 µM): 0.495
- relative viability (Vismodegib + Vorinostat; first compound 8 µM): 0.453
- relative viability (VE-821 + Vorinostat; first compound 0.08 µM): 0.6
- relative viability (VE-821 + Vorinostat; first compound 0.253 µM): 0.472
- relative viability (VE-821 + Vorinostat; first compound 0.8 µM): 0.624
- relative viability (VE-821 + Vorinostat; first compound 2.53 µM): 0.633
- relative viability (VE-821 + Vorinostat; first compound 8 µM): 0.708

Cell Line: HCC-15
- relative viability (VE-821 + Navitoclax; first compound 0.08 µM): 0.813
- relative viability (VE-821 + Navitoclax; first compound 0.253 µM): 0.706
- relative viability (VE-821 + Navitoclax; first compound 0.8 µM): 0.778
- relative viability (VE-821 + Navitoclax; first compound 2.53 µM): 0.772
- relative viability (VE-821 + Navitoclax; first compound 8 µM): 0.676
- relative viability (Vismodegib + Vorinostat; first compound 0.08 µM): 0.844
- relative viability (Vismodegib + Vorinostat; first compound 0.253 µM): 0.774
- relative viability (Vismodegib + Vorinostat; first compound 0.8 µM): 0.86
- relative viability (Vismodegib + Vorinostat; first compound 2.53 µM): 0.781
- relative viability (Vismodegib + Vorinostat; first compound 8 µM): 0.859
- relative viability (VE-821 + Vorinostat; first compound 0.08 µM): 0.954
- relative viability (VE-821 + Vorinostat; first compound 0.253 µM): 0.868
- relative viability (VE-821 + Vorinostat; first compound 0.8 µM): 0.901
- relative viability (VE-821 + Vorinostat; first compound 2.53 µM): 0.943
- relative viability (VE-821 + Vorinostat; first compound 8 µM): 0.934

Cell Line: HCC-44
- relative viability (VE-821 + Navitoclax; first compound 0.08 µM): 1.01
- relative viability (VE-821 + Navitoclax; first compound 0.253 µM): 0.992
- relative viability (VE-821 + Navitoclax; first compound 0.8 µM): 0.975
- relative viability (VE-821 + Navitoclax; first compound 2.53 µM): 1.19
- relative viability (VE-821 + Navitoclax; first compound 8 µM): 1.08
- relative viability (Vismodegib + Vorinostat; first compound 0.08 µM): 1.21
- relative viability (Vismodegib + Vorinostat; first compound 0.253 µM): 1.02
- relative viability (Vismodegib + Vorinostat; first compound 0.8 µM): 1.1
- relative viability (Vismodegib + Vorinostat; first compound 2.53 µM): 1.08
- relative viability (Vismodegib + Vorinostat; first compound 8 µM): 1.11
- relative viability (VE-821 + Vorinostat; first compound 0.08 µM): 1.07
- relative viability (VE-821 + Vorinostat; first compound 0.253 µM): 1.07
- relative viability (VE-821 + Vorinostat; first compound 0.8 µM): 1.12
- relative viability (VE-821 + Vorinostat; first compound 2.53 µM): 1.15
- relative viability (VE-821 + Vorinostat; first compound 8 µM): 1.09

Cell Line: HCC-78
- relative viability (VE-821 + Navitoclax; first compound 0.08 µM): 0.831
- relative viability (VE-821 + Navitoclax; first compound 0.253 µM): 0.783
- relative viability (VE-821 + Navitoclax; first compound 0.8 µM): 0.707
- relative viability (VE-821 + Navitoclax; first compound 2.53 µM): 1.04
- relative viability (VE-821 + Navitoclax; first compound 8 µM): 0.654
- relative viability (Vismodegib + Vorinostat; first compound 0.08 µM): 0.425
- relative viability (Vismodegib + Vorinostat; first compound 0.253 µM): 0.403
- relative viability (Vismodegib + Vorinostat; first compound 0.8 µM): 0.453
- relative viability (Vismodegib + Vorinostat; first compound 2.53 µM): 0.492
- relative viability (Vismodegib + Vorinostat; first compound 8 µM): 0.42
- relative viability (VE-821 + Vorinostat; first compound 0.08 µM): 0.388
- relative viability (VE-821 + Vorinostat; first compound 0.253 µM): 0.53
- relative viability (VE-821 + Vorinostat; first compound 0.8 µM): 0.393
- relative viability (VE-821 + Vorinostat; first compound 2.53 µM): 0.493
- relative viability (VE-821 + Vorinostat; first compound 8 µM): 0.417

Cell Line: HCC-366
- relative viability (VE-821 + Navitoclax; first compound 0.08 µM): 1.34
- relative viability (VE-821 + Navitoclax; first compound 0.253 µM): 1.02
- relative viability (VE-821 + Navitoclax; first compound 0.8 µM): 0.925
- relative viability (VE-821 + Navitoclax; first compound 2.53 µM): 1.02
- relative viability (VE-821 + Navitoclax; first compound 8 µM): 0.0801
- relative viability (Vismodegib + Vorinostat; first compound 0.08 µM): 0.46
- relative viability (Vismodegib + Vorinostat; first compound 0.253 µM): 0.37
- relative viability (Vismodegib + Vorinostat; first compound 0.8 µM): 0.25
- relative viability (Vismodegib + Vorinostat; first compound 2.53 µM): 0.354
- relative viability (Vismodegib + Vorinostat; first compound 8 µM): 0.285
- relative viability (VE-821 + Vorinostat; first compound 0.08 µM): 0.426
- relative viability (VE-821 + Vorinostat; first compound 0.253 µM): 0.269
- relative viability (VE-821 + Vorinostat; first compound 0.8 µM): 0.28
- relative viability (VE-821 + Vorinostat; first compound 2.53 µM): 0.121
- relative viability (VE-821 + Vorinostat; first compound 8 µM): 0.0472

Cell Line: HCC-827
- relative viability (VE-821 + Navitoclax; first compound 0.08 µM): 1.05
- relative viability (VE-821 + Navitoclax; first compound 0.253 µM): 1.02
- relative viability (VE-821 + Navitoclax; first compound 0.8 µM): 1.07
- relative viability (VE-821 + Navitoclax; first compound 2.53 µM): 1.02
- relative viability (VE-821 + Navitoclax; first compound 8 µM): 1.01
- relative viability (Vismodegib + Vorinostat; first compound 0.08 µM): 0.878
- relative viability (Vismodegib + Vorinostat; first compound 0.253 µM): 0.903
- relative viability (Vismodegib + Vorinostat; first compound 0.8 µM): 0.909
- relative viability (Vismodegib + Vorinostat; first compound 2.53 µM): 0.774
- relative viability (Vismodegib + Vorinostat; first compound 8 µM): 0.861
- relative viability (VE-821 + Vorinostat; first compound 0.08 µM): 0.728
- relative viability (VE-821 + Vorinostat; first compound 0.253 µM): 0.779
- relative viability (VE-821 + Vorinostat; first compound 0.8 µM): 0.856
- relative viability (VE-821 + Vorinostat; first compound 2.53 µM): 0.837
- relative viability (VE-821 + Vorinostat; first compound 8 µM): 0.722

Cell Line: HOP-62
- relative viability (VE-821 + Navitoclax; first compound 0.08 µM): 1.22
- relative viability (VE-821 + Navitoclax; first compound 0.253 µM): 0.91
- relative viability (VE-821 + Navitoclax; first compound 0.8 µM): 1.16
- relative viability (VE-821 + Navitoclax; first compound 2.53 µM): 1.17
- relative viability (VE-821 + Navitoclax; first compound 8 µM): 1.12
- relative viability (Vismodegib + Vorinostat; first compound 0.08 µM): 0.681
- relative viability (Vismodegib + Vorinostat; first compound 0.253 µM): 0.591
- relative viability (Vismodegib + Vorinostat; first compound 0.8 µM): 0.535
- relative viability (Vismodegib + Vorinostat; first compound 2.53 µM): 0.58
- relative viability (Vismodegib + Vorinostat; first compound 8 µM): 0.469
- relative viability (VE-821 + Vorinostat; first compound 0.08 µM): 0.766
- relative viability (VE-821 + Vorinostat; first compound 0.253 µM): 0.542
- relative viability (VE-821 + Vorinostat; first compound 0.8 µM): 0.644
- relative viability (VE-821 + Vorinostat; first compound 2.53 µM): 0.771
- relative viability (VE-821 + Vorinostat; first compound 8 µM): 0.469

Cell Line: IA-LM
- relative viability (VE-821 + Navitoclax; first compound 0.08 µM): 0.855
- relative viability (VE-821 + Navitoclax; first compound 0.253 µM): 0.71
- relative viability (VE-821 + Navitoclax; first compound 0.8 µM): 0.755
- relative viability (VE-821 + Navitoclax; first compound 2.53 µM): 0.92
- relative viability (VE-821 + Navitoclax; first compound 8 µM): 0.527
- relative viability (Vismodegib + Vorinostat; first compound 0.08 µM): 0.735
- relative viability (Vismodegib + Vorinostat; first compound 0.253 µM): 0.951
- relative viability (Vismodegib + Vorinostat; first compound 0.8 µM): 0.843
- relative viability (Vismodegib + Vorinostat; first compound 2.53 µM): 0.947
- relative viability (Vismodegib + Vorinostat; first compound 8 µM): 1.03
- relative viability (VE-821 + Vorinostat; first compound 0.08 µM): 0.951
- relative viability (VE-821 + Vorinostat; first compound 0.253 µM): 0.976
- relative viability (VE-821 + Vorinostat; first compound 0.8 µM): 0.941
- relative viability (VE-821 + Vorinostat; first compound 2.53 µM): 1.26
- relative viability (VE-821 + Vorinostat; first compound 8 µM): 0.903

Cell Line: LC-2-ad
- relative viability (VE-821 + Navitoclax; first compound 0.08 µM): 0.587
- relative viability (VE-821 + Navitoclax; first compound 0.253 µM): 0.413
- relative viability (VE-821 + Navitoclax; first compound 0.8 µM): 0.566
- relative viability (VE-821 + Navitoclax; first compound 2.53 µM): 0.622
- relative viability (VE-821 + Navitoclax; first compound 8 µM): 0.291
- relative viability (Vismodegib + Vorinostat; first compound 0.08 µM): 0.7
- relative viability (Vismodegib + Vorinostat; first compound 0.253 µM): 0.729
- relative viability (Vismodegib + Vorinostat; first compound 0.8 µM): 0.701
- relative viability (Vismodegib + Vorinostat; first compound 2.53 µM): 0.667
- relative viability (Vismodegib + Vorinostat; first compound 8 µM): 0.529
- relative viability (VE-821 + Vorinostat; first compound 0.08 µM): 0.758
- relative viability (VE-821 + Vorinostat; first compound 0.253 µM): 0.748
- relative viability (VE-821 + Vorinostat; first compound 0.8 µM): 0.768
- relative viability (VE-821 + Vorinostat; first compound 2.53 µM): 0.8
- relative viability (VE-821 + Vorinostat; first compound 8 µM): 0.659

Cell Line: LCLC-97TM1
- relative viability (VE-821 + Navitoclax; first compound 0.08 µM): 0.58
- relative viability (VE-821 + Navitoclax; first compound 0.253 µM): 0.546
- relative viability (VE-821 + Navitoclax; first compound 0.8 µM): 0.418
- relative viability (VE-821 + Navitoclax; first compound 2.53 µM): 0.494
- relative viability (VE-821 + Navitoclax; first compound 8 µM): 0.43
- relative viability (Vismodegib + Vorinostat; first compound 0.08 µM): 0.731
- relative viability (Vismodegib + Vorinostat; first compound 0.253 µM): 0.64
- relative viability (Vismodegib + Vorinostat; first compound 0.8 µM): 0.656
- relative viability (Vismodegib + Vorinostat; first compound 2.53 µM): 0.632
- relative viability (Vismodegib + Vorinostat; first compound 8 µM): 0.42
- relative viability (VE-821 + Vorinostat; first compound 0.08 µM): 0.84
- relative viability (VE-821 + Vorinostat; first compound 0.253 µM): 0.65
- relative viability (VE-821 + Vorinostat; first compound 0.8 µM): 0.879
- relative viability (VE-821 + Vorinostat; first compound 2.53 µM): 1.01
- relative viability (VE-821 + Vorinostat; first compound 8 µM): 0.327

Cell Line: LK-2
- relative viability (VE-821 + Navitoclax; first compound 0.08 µM): 0.996
- relative viability (VE-821 + Navitoclax; first compound 0.253 µM): 0.965
- relative viability (VE-821 + Navitoclax; first compound 0.8 µM): 0.767
- relative viability (VE-821 + Navitoclax; first compound 2.53 µM): 1.06
- relative viability (VE-821 + Navitoclax; first compound 8 µM): 0.97
- relative viability (Vismodegib + Vorinostat; first compound 0.08 µM): 0.246
- relative viability (Vismodegib + Vorinostat; first compound 0.253 µM): 0.31
- relative viability (Vismodegib + Vorinostat; first compound 0.8 µM): 0.294
- relative viability (Vismodegib + Vorinostat; first compound 2.53 µM): 0.286
- relative viability (Vismodegib + Vorinostat; first compound 8 µM): 0.239
- relative viability (VE-821 + Vorinostat; first compound 0.08 µM): 0.335
- relative viability (VE-821 + Vorinostat; first compound 0.253 µM): 0.253
- relative viability (VE-821 + Vorinostat; first compound 0.8 µM): 0.416
- relative viability (VE-821 + Vorinostat; first compound 2.53 µM): 0.408
- relative viability (VE-821 + Vorinostat; first compound 8 µM): 0.397
